molecular target: Aurora kinase B (Homo sapiens, UniProt Q96GD4); test: Inhibition of Aurora B; conditions: not given
Sequence (Q96GD4 whole entry): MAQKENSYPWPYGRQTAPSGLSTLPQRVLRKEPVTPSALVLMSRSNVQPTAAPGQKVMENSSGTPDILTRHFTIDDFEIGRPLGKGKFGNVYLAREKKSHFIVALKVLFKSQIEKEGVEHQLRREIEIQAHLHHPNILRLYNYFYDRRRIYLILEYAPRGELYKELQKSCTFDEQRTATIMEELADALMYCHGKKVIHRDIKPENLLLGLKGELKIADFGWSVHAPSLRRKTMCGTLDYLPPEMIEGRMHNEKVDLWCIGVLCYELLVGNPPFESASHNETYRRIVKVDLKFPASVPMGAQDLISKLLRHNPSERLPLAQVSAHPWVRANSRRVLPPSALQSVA

Compound | IC50 [nM]
CN1CCN(Cc2ccc(Nc3ncc(Cl)c(Nc4ccccc4S(=O)(=O)N(C)C)n3)cc2)CC1 [DUBERMATINIB] | 12.4

molecular target: T1, Tyrosine-protein kinase receptor UFO (Homo sapiens, UniProt P30530); conditions: not given
T1 sequence (P30530 whole entry): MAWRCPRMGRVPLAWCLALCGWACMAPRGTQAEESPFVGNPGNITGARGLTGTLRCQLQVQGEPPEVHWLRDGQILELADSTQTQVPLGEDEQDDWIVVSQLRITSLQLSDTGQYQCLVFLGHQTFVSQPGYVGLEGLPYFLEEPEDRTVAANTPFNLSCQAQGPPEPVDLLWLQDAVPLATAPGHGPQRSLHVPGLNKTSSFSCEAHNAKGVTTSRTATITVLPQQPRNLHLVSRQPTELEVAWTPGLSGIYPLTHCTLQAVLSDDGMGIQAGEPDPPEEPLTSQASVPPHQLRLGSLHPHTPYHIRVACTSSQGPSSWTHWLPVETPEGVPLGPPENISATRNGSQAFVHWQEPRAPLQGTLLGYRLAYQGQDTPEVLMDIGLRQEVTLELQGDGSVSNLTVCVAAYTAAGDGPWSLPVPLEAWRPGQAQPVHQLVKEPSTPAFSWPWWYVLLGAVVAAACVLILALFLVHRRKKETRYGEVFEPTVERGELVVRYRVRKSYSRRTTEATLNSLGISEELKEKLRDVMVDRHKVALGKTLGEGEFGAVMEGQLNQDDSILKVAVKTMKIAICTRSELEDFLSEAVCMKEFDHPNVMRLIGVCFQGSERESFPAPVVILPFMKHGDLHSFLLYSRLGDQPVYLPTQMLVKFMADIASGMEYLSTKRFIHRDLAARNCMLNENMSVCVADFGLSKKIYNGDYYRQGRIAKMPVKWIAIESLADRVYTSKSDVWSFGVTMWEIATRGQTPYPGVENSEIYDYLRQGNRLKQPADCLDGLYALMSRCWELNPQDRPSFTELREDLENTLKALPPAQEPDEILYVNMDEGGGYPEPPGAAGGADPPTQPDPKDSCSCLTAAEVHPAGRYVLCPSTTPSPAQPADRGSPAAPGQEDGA

Compound | IC50 [nM]
CN1CCN(Cc2ccc(Nc3ncc(C4CC4)c(-c4ccc(F)c(Cl)c4)n3)cc2)CC1 | 3400
CN1CCN(Cc2ccc(Nc3ncc(Cl)c(Nc4ccccc4S(=O)(=O)N4CCCC4)n3)cc2)CC1 | 19
CN1CCN(Cc2ccc(Nc3ncc(Cl)c(-c4ccc(F)cc4S(=O)(=O)N(C)C)n3)cc2)CC1 | 82
Cc1cnc(Nc2ccc(N3CCN(C)CC3)c(F)c2)nc1-c1ccc(F)c(Cl)c1 | 2800
Cc1cnc(Nc2ccc(N3CCN(C)CC3)c(F)c2)nc1-c1ccc(F)cc1 | 6100
CN1CCN(Cc2ccc(Nc3ncc(C(F)(F)F)c(Nc4ccccc4C(=O)N(C)C)n3)cc2)CC1 | > 10000
CN1CCN(c2ccc(Nc3ncc(Cl)c(Nc4ccccc4S(=O)(=O)N(C)C)n3)cc2)CC1 | 1730
Cc1cnc(Nc2ccc(OCCN3CCCCC3)cc2)nc1-c1ccc(F)c(Cl)c1 | 1630
CN1CCN(Cc2ccc(Nc3ncc(Cl)c(-c4ccc(F)cc4S(=O)(=O)N4CCCC4)n3)cc2)CC1 | 91

molecular target: T2, Aurora kinase A (Homo sapiens, UniProt O14965); test: Inhibition of Aurora A; conditions: not given
T2 sequence (O14965 whole entry): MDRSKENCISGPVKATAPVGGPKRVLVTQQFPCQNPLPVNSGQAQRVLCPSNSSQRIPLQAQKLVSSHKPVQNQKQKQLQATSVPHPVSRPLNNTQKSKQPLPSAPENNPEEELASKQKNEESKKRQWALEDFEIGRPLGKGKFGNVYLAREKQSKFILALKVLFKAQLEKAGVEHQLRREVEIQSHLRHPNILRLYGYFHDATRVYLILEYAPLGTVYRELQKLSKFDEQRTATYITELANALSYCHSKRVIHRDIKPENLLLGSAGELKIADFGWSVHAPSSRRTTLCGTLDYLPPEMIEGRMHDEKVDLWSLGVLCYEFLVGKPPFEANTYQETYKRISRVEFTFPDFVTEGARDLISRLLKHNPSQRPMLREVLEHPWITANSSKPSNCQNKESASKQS

Compound | IC50 [nM]
CN1CCN(Cc2ccc(Nc3ncc(Cl)c(Nc4ccccc4S(=O)(=O)N(C)C)n3)cc2)CC1 [DUBERMATINIB] | 3

system: PSN1; test: Cytotoxicity against human PSN1 cells after 96 hrs by ATP-lite luminescence assay; format: functional, cell-based; conditions: PSN1, 96 h

Compound | IC50 [nM]
CN1CCN(Cc2ccc(Nc3ncc(Cl)c(Nc4ccccc4C(=O)N(C)C)n3)cc2)CC1 | 70
CN1CCN(Cc2ccc(Nc3ncc(Cl)c(Nc4ccccc4S(=O)(=O)N4CCCC4)n3)cc2)CC1 | 2
CN1CCN(Cc2ccc(Nc3ncc(Cl)c(Nc4ccccc4C(=O)N4CCCC4)n3)cc2)CC1 | 21
CN1CCN(Cc2ccc(Nc3ncc(Cl)c(-c4ccc(F)cc4S(=O)(=O)N4CCCC4)n3)cc2)CC1 | 192
CN1CCN(Cc2ccc(Nc3ncc(Cl)c(Nc4ccc(F)cc4S(=O)(=O)N4CCCC4)n3)cc2)CC1 | 9
CN1CCN(Cc2ccc(Nc3ncc(Cl)c(Nc4ccccc4C(=O)NC4CC4)n3)cc2)CC1 | 64

molecular target: T3, Tyrosine-protein kinase Mer (Homo sapiens, UniProt Q12866); test: Inhibition of Mer kinase; conditions: not given
T3 sequence (Q12866 whole entry): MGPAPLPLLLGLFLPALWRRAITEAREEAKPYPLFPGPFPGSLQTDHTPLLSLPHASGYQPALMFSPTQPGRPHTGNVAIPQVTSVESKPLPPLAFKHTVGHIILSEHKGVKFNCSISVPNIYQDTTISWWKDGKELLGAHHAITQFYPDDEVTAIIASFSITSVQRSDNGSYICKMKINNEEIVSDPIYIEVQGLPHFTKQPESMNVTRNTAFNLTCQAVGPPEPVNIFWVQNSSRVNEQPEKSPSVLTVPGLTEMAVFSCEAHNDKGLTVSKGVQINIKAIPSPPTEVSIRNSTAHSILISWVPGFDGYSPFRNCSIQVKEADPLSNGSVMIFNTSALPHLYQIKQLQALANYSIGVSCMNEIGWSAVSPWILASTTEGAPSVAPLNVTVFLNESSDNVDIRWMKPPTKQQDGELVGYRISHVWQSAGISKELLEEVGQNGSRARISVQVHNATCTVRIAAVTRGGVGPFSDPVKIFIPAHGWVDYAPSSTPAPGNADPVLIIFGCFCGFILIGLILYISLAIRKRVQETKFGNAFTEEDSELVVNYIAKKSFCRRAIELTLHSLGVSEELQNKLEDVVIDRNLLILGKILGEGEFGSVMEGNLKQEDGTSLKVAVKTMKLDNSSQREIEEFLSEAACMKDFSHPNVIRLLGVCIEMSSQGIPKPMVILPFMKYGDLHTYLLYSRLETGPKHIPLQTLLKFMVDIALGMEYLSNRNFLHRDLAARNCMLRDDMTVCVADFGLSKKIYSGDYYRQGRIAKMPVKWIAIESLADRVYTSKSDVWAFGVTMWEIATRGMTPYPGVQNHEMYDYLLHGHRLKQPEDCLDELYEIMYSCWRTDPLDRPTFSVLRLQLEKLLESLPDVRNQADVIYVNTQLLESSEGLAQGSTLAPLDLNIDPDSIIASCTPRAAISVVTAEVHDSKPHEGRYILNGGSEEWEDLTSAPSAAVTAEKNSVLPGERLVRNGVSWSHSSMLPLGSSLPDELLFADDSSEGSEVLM

Compound | IC50 [nM]
CC(C)n1cnc2c(Nc3cccc(Cl)c3)nc(NCCO)nc21 | 11300

Source: ChEMBL document CHEMBL2021829, “Design, Synthesis and Biological Evaluation of a Series of Novel Axl Kinase Inhibitors” (ACS Med Chem Lett, 2011)
